Measured values as given in patent US10111847B2, “Compounds and methods for modulating vascular injury” (The Regents of the University of California, priority 2012, dated 2018).

Tests used:
[1] = system: human saphenous vein vascular smooth muscle (sv-VSMC) cells; assay: TNFα induced superoxide production (DHE) in sv-VSMC (Maresin-1); type: cell-based; conditions: 100 nM; TNFα 10 ng/ml 4 hr
Procedure: Mar-1. Cells were grown in 8-well chamber slides at a density of 15000 cells/well for 2 days for VSMCs and 50000 cells/well for 2 days for ECs in a 96 well plate. After treatments, cells were incubated with dihydroethidium (DHE, 3 μM, Invitrogen) or CellRox (Invitrogen Inc, 5 μM for ECs) in media for 30 minutes at 37° C. in a humidified chamber with 5% CO2 protected from light. DAPI nuclear counter staining was utilized for DHE staining. For DHE, fluorescence was detected with TRITC filter allowing the detection of the DHE emission wavelength of 590-620 nm. Fluorescence quantitation was performed using ImageJ analysis software. For ECs, fluorescence measurements were taken using a Spectramax M2e plate reader.
FIGS. 13A-13D. Representative merged images of DHE staining, counterstained with DAPI. (A), Negative control. (B), TNFα at 10 ng/ml for 4 hr. […] (E) Quantitative comparison of DHE staining intensity in the nucleus of human saphenous vein vascular smooth muscle (sv-VSMC) cells, treated with TNFα and 7S and 7R-Maresin-1 with and without pertussis toxin. (F) Quantitative comparison of cellular ROS production by CellRox (Life technologies, Carlsbad, Calif.) in human saphenous vein endothelial (EC) cells treated with TNFα (1 ng/nil) and 7S-Maresin-1 (N>=3). […]

p65 subunit = assay: Nuclear translocation of p65 subunit in sv-ECs (immunofluorescence); type: cell-based, human; conditions: 100 nm, 30 min; TNFα 1 ng/ml 2 hrs
Procedure: Immunofluorescence for p65 (RelA): 15000 VSMCs or 30000 ECs were seeded on a 8-well chamber slide. Cells received 30 min of Maresin-1 pretreatment, followed by TNF-α for 2 hr. Cells were fixed in 2% paraformaldehyde, followed by permeabilization with ice-cold acetone (10 min) and 1% Triton X-100 (20 min). Cells were incubated overnight in a humidified chamber with anti-p65 antibody (Santa Cruz Biotechnology Inc.) followed by Alexa-fluor 488 tagged secondary antibody (Life Technologies) and were visualized under a fluorescent microscope.
ECs were grown in chamber slides and treated with vehicle or 100 nm of 7S-Maresin-1 for 30 min, followed by TNFα (1 ng/ml) for 2 hrs. Cells were fixed and subsequently stained with anti-p65 (Santa Cruz Biotechnology) and secondary antibodies (Alexa-488).
FIGS. 17A-17D. Representative images of Ctrl (A), TNFα (B), 7S-Maresin-1+TNFα. (C). (D) Mean fluorescence of nucleus and cytoplasm were quantified from all groups and the net result of the ratio of nucleus over cytoplasmic mean fluorescence is depicted in the bar graph, as a measure of relative p65 nuclear translocation. (N>=3). P≤0.05, One-way ANOVA with Dunnett's post hoc test. *: P≤0.05 compared to control, unpaired t-test. †: P≤0.05 compared to TNFα, unpaired t-test. Error bars: SEM.

IKKα/β subunit = assay: TNFα induced phosphorylation of IKKα/β in sv-VSMCs, western blot; type: cell-based, human; conditions: 100 nm, 30 min; TNFα 10 ng/ml 15 min
Procedure: Mar-1. VSMCs and ECs were lysed in buffer (20 mM Tris-Hcl, 137 mM NaCl, 10% Glycerol, 1% NP-40) with protease and phosphatase inhibitors (Halt inhibitor capsules, Pierce, Inc) by sonication on ice. The lysates were instantly snap frozen in liquid nitrogen and thawed back later for western blotting. After centrifugation (15,000 g for 20 minutes), the whole cell extract (supernatant) was collected and was heated at 100° C. in Laemlli buffer for 6 minutes. Lysates were run on Mini-Protean TGX gels
(Biorad) and transferred on PVDF membranes which were probed with appropriate primary and secondary antibodies and visualized for quantitation using q-dot nanocrystals (Life Technologies, Inc).
Cells were pretreated with 100 nm of 7S/7R-Maresin-1 for 30 min, followed by TNFα (10 ng/ml for VSMC and 1 ng/ml for EC) for 15 min. Whole cell lysates were collected and probed for pan and phospho IKK (Cell Signaling Inc.).
FIG. 18. IKK-phospho and total IKK western blotting image is representative of three independent experiments. Bar graph represents net quantitative densitometry analysis. N=3. P≤0.05, One-way ANOVA with Dunnett's post hoc test. *: P≤0.05 compared to control, unpaired t-test. †: P≤0.05 compared to TNFα, unpaired t-test. Error bars: SEM.

rabbit femoral artery = assay: Rabbit femoral artery balloon injury, neointimal hyperplasia at 28 days; type: in vivo, New Zealand White Rabbits; conditions: 10 nM local; 28 days after injury; vehicle 0.38±0.04; P=0.002
Procedure: All animal experiments are performed under a protocol approved by University of California San Francisco Animal Care Committee. New Zealand White Rabbits (NZWR, Western Oregon Rabbit Company, Philomath, Oreg.) weighing 3 to 5 kg and maintained on a normal chow diet are used in all experiments. Animals are anesthetized for surgical procedures with intramuscular injection of ketamine (25 mg/kg) and xylazine (5 mg/kg), and maintained with inhalation of isoflurane. The balloon injury model is made as described by Conte et al. “Efficient repopulation of denuded rabbit arteries with autologous genetically modified endothelial cells,” Circulation. 1994; 89:2161-2169. Rabbits undergo bilateral external iliac and femoral artery injury with 2F Fogarty balloon catheter (Applied Medical Resources Corp. Rancho Santa Margarita, Calif.). After balloon injury RvD2 (10 nM, Cayman chemical, Ann Arbor, Mich.) is infused to luminal area of the right femoral artery and control vehicle (normal saline with 0.1% ethanol) is infused to the left femoral artery, and then left undisturbed for 20 minutes. For evaluation of acute effects the rabbits are euthanized at 3 days after injury by intravenous overdose of sodium Nembutal. The femoral arteries are harvested and cryosection is made for immunohistochemistry, and total RNA from treated and control tissue is isolated. […]

| SMILES | TNF-α-induced superoxide production in VSMC [1] | nuclear translocation of p65 subunit in human sv-ECs (p65 subunit) | TNFα induced phosphorylation of IKKα/β subunit in human sv-VSMCs (IKKα/β subunit) | neointimal area (rabbit femoral artery) [mm^2] |
| --- | --- | --- | --- | --- |
| CC/C=C\C/C=C\C[C@H](O)\C=C/C=C/C=C/[C@@H](O)C/C=C\CCC(=O)O [7S-Maresin-1, 7S,14R-dihydroxydocosa-4Z,8E,10Z,12Z,16Z,19Z-hexaenoic acid] | significantly reduced | Inhibits | Reduce |  |
| CC/C=C\C[C@H](O)[C@H](O)/C=C/C=C/C=C\C=C\[C@@H](O)C/C=C\CCC(=O)O [RvD2, resolvin D2] |  |  |  | 0.27±0.03 |
